What was measured:
Assay in all cases: relative viability (nuclei count vs DMSO), 5 days (fraction); higher = more cells survive
Carboplatin + Navitoclax = compound: C1CC(C1)(C(=O)O)C(=O)O.[NH2-].[NH2-].[Pt+2] [Carboplatin] + CC1(C)CCC(c2ccc(Cl)cc2)=C(CN2CCN(c3ccc(C(=O)NS(=O)(=O)c4ccc(N[C@H](CCN5CCOCC5)CSc5ccccc5)c(S(=O)(=O)C(F)(F)F)c4)cc3)CC2)C1 [Navitoclax] (partner 0.5 µM)
Outline: (§1)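 Medians of duplicate plates are given as relative viability. That measure is the nuclei count in treated wells divided by the count in vehicle wells. Counts were taken on 4× images of lung cancer cell lines in 1536-well plates, 5 days after pin-tool dosing the day after seeding with one drug alone or a fixed anchor-drug dose plus five library-drug doses (not always all listed) in √10 steps.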

Carboplatin + Lapatinib = compound: C1CC(C1)(C(=O)O)C(=O)O.[NH2-].[NH2-].[Pt+2] [Carboplatin] + CS(=O)(=O)CCNCc1ccc(-c2ccc3ncnc(Nc4ccc(OCc5cccc(F)c5)c(Cl)c4)c3c2)o1 [Lapatinib] (partner 2 µM)
Outline: as §1

GSK126 + Bortezomib = compound: CC[C@H](C)N1C=C(C2=C(C=C(C=C21)C3=CN=C(C=C3)N4CCNCC4)C(=O)NCC5=C(C=C(NC5=O)C)C)C [GSK126] + CC(C)C[C@H](NC(=O)[C@H](Cc1ccccc1)NC(=O)c1cnccn1)B(O)O [Bortezomib] (partner 0.002 µM)
Outline: as §1

GSK126 + Linsitinib = compound: CC[C@H](C)N1C=C(C2=C(C=C(C=C21)C3=CN=C(C=C3)N4CCNCC4)C(=O)NCC5=C(C=C(NC5=O)C)C)C [GSK126] + C[C@]1(O)C[C@@H](c2nc(-c3ccc4ccc(-c5ccccc5)nc4c3)c3c(N)nccn32)C1 [Linsitinib] (partner 1 µM)
Outline: as §1

Cell Line	relative viability (Carboplatin + Navitoclax; first compound 0.08 µM)	relative viability (Carboplatin + Navitoclax; first compound 0.253 µM)	relative viability (Carboplatin + Navitoclax; first compound 0.8 µM)	relative viability (Carboplatin + Navitoclax; first compound 2.53 µM)	relative viability (Carboplatin + Navitoclax; first compound 8 µM)	relative viability (Carboplatin + Lapatinib; first compound 0.08 µM)	relative viability (Carboplatin + Lapatinib; first compound 0.253 µM)	relative viability (Carboplatin + Lapatinib; first compound 0.8 µM)	relative viability (Carboplatin + Lapatinib; first compound 2.53 µM)	relative viability (Carboplatin + Lapatinib; first compound 8 µM)	relative viability (GSK126 + Bortezomib; first compound 0.08 µM)	relative viability (GSK126 + Bortezomib; first compound 0.253 µM)	relative viability (GSK126 + Bortezomib; first compound 0.8 µM)	relative viability (GSK126 + Bortezomib; first compound 2.53 µM)	relative viability (GSK126 + Bortezomib; first compound 8 µM)	relative viability (GSK126 + Linsitinib; first compound 0.08 µM)	relative viability (GSK126 + Linsitinib; first compound 0.253 µM)	relative viability (GSK126 + Linsitinib; first compound 0.8 µM)	relative viability (GSK126 + Linsitinib; first compound 2.53 µM)	relative viability (GSK126 + Linsitinib; first compound 8 µM)
NCI-H3122	1.03	0.988	1.01	1.02	0.97	1.1	1	0.981	0.953	0.995	1.01	1.04	0.994	1.01	1.07	1.03	0.998	0.86	1.05	1.04
201T	1.2	1.18	1.12	1.14	1.18	1.06	1.08	1.11	1.08	0.99	1.09	1.12	1.07	1.2	0.959	1.04	1.11	1.06	1.07	1.18
RERF-LC-KJ	1.29	0.739	0.822	0.915	0.652	0.854	0.838	0.822	0.841	0.726	1.14	1.23	0.938	1.16	1.07	0.908	0.909	0.852	0.884	0.901
NCI-H1734	0.873	0.905	0.873	0.729	0.676	1.01	1.07	1.06	1.01	0.833	0.98	0.979	1.02	0.87	0.871	0.871	0.896	0.814	0.846	0.946
NCI-H1651	0.973	1.13	0.982	0.904	0.538	0.852	0.743	0.965	0.837	0.497	1.03	0.949	0.981	1.01	0.996	1.07	0.815	0.855	0.972	1.05
PC-14	0.991	0.974	0.985	0.918	0.566	0.312	0.368	0.33	0.354	0.251	0.774	0.943	0.895	0.781	0.782	0.944	0.994	0.982	0.968	0.954
NCI-H1915	0.795	0.751	0.745	0.752	0.579	0.906	1.03	0.976	0.999	0.577	1.02	0.964	0.991	0.979	0.998	1.2	1.08	1.14	1.17	1.16
Calu-6	0.931	0.77	0.824	0.737	0.296	1.12	1.06	1.03	0.87	0.456	1.18	0.949	1.1	1.2	1.04	1.14	0.97		0.989	1.07
EBC-1	0.479	0.364	0.443	0.401	0.33	0.201	0.234	0.201	0.208	0.204	0.61	0.542	0.529	0.563	0.411	1.07	1.02	1	0.74	0.909
IA-LM	0.756	0.553	0.826	0.675	0.532	0.809	0.802	0.739	0.929	0.77	0.98	0.789	0.847	0.796	0.788	0.685	0.729	0.737	0.365	0.614
NCI-H1975	1.19	1.26	1.01	1.09	1.18	0.877	0.993	0.838	0.826	0.884	0.509	0.31	0.361	0.392	0.343	1.02	1.01	0.983	0.96	0.987
BEN	0.0584	0.0591	0.0635	0.0642	0.0703	0.797	0.87	0.749	0.654	0.59	1.11	0.742	0.737	0.885	0.846	1.19	0.953	0.813	0.893	0.653
EPLC-272H	1.15	1.18	0.978	1.29	1.11	1.01	1.14	0.961	0.981	0.901	1.1	0.889	0.99	0.822	0.963	1.4	1.16	1.06	1.17	1.23
NCI-H2228	1.2	0.818	0.855	0.744	0.472	1.61	0.939	1.01	0.868	0.616	1.01	0.787	0.763	1.08	1.05	1.11	0.681	0.755	0.708	0.542
NCI-H1299	1.09	1.02	1.02	1.01	0.964	0.993	0.922	0.944	0.907	0.892	1.03	1.01	0.999	0.969	1.06	0.986	0.998	1	0.93	0.964
LU99A	0.842	0.881	0.829	0.774	0.581	0.988	1.04	1.01	0.917	0.795	1.13	1.08	1.19	1.15	1.12	0.52	0.513	0.605	0.503	0.652

Cell Line	relative viability (Carboplatin + Navitoclax; first compound 0.08 µM)	relative viability (Carboplatin + Navitoclax; first compound 0.253 µM)	relative viability (Carboplatin + Navitoclax; first compound 0.8 µM)	relative viability (Carboplatin + Navitoclax; first compound 2.53 µM)	relative viability (Carboplatin + Navitoclax; first compound 8 µM)	relative viability (Carboplatin + Lapatinib; first compound 0.08 µM)	relative viability (Carboplatin + Lapatinib; first compound 0.253 µM)	relative viability (Carboplatin + Lapatinib; first compound 0.8 µM)	relative viability (Carboplatin + Lapatinib; first compound 2.53 µM)	relative viability (Carboplatin + Lapatinib; first compound 8 µM)	relative viability (GSK126 + Bortezomib; first compound 0.08 µM)	relative viability (GSK126 + Bortezomib; first compound 0.253 µM)	relative viability (GSK126 + Bortezomib; first compound 0.8 µM)	relative viability (GSK126 + Bortezomib; first compound 2.53 µM)	relative viability (GSK126 + Bortezomib; first compound 8 µM)	relative viability (GSK126 + Linsitinib; first compound 0.08 µM)	relative viability (GSK126 + Linsitinib; first compound 0.253 µM)	relative viability (GSK126 + Linsitinib; first compound 0.8 µM)	relative viability (GSK126 + Linsitinib; first compound 2.53 µM)	relative viability (GSK126 + Linsitinib; first compound 8 µM)
NCI-H2405	0.869	0.862	0.639	0.629	0.62	1.31	1.06	1.12	1.15	0.904	0.988	0.974	0.985	0.982	0.975	1.02	0.829	0.876	1	0.927
NCI-H2009	1.12	1.08	1.09	1.04	0.733	1.37	0.89	0.837	0.958	0.572	1.3	0.951	0.992	1.16	1.09	1.3	1.18	1.27	1.18	1.2
HOP-62	1.04	1.08	0.789	0.902	0.748	0.98	1.07	1.09	1.02	0.812	0.645	0.816	0.862	0.837	0.724	1.05	0.979	0.856	0.926	0.899
NCI-H727	0.487	0.393	0.426	0.441	0.324	0.998	0.782	0.85	0.745	0.448	1.02	0.78	0.899	0.854	0.88	0.218	0.388	0.26	0.319	0.364
COR-L 105	0.66	0.809	0.595	0.822	0.531	0.354	0.349	0.381	0.332	0.382	1.03	0.718	0.773	0.786	0.748	1.01	1.06	0.729	0.997	0.858
PC-3 [JPC-3]	0.85	0.78	0.83	0.717	0.725	0.451	0.458	0.465	0.468	0.446	0.823	1.01	0.786	0.817	0.856	1.01	0.977	0.941	0.921	0.958
NCI-H2347	0.897	0.929	0.771	0.721	0.673	1.02	0.926	0.918	0.949	0.888	0.931	0.924	0.917	1.36	0.89	1.04	0.943	0.916	0.885	0.965
SW 1573	0.91	1.03	0.922	1.1	0.543	1.05	1.1	1.17	1.3	0.961	1.06	1.1	0.989	1.01	1.26	0.813	0.761	0.743	0.816	0.746
NCI-H838	1.22	1.08	1.16	1.11	1.06	1.05	1.1	1.04	0.951	1.04	0.935	0.828	0.662	0.613	0.767	1.12	0.979	0.952	0.906	0.866
HCC-44	0.949	0.99	0.914	0.786	0.874	1.03	1.01	0.984	0.965	0.968	0.857	0.972	0.876	0.77	0.871	0.681	0.692	0.659	0.7	0.715
HCC-78	0.782	0.92	0.707	0.751	0.816	0.867	0.833	0.971	0.875	0.631	0.464	0.466	0.374	0.562	0.389	0.662	0.547	0.518	0.465	0.47
A-427	0.973	0.941	0.953	0.908	0.964	1.1	1.05	1.04	1.04	0.985	1.06	0.977	1.02	0.989	0.973	1.19	1.19	1.09	1.17	1.11
CAL-12T	1.2	1.21	1.23	1.26	1.09	0.754	0.624	0.749	0.755	0.639	0.942	1.01	0.929	1.08	1.04	0.964	0.94	0.78	0.918	0.868
NCI-H460	1.13	1.11	1.03	0.986	0.358	0.977	0.87	0.957	0.779	0.336	1.34	1.1	1.06	1.09	1.18	0.76	0.784	0.787	0.798	0.969
NCI-H2085	1.25	1.09	1.09	1.05	1.09	0.8	0.897	0.787	0.748	0.815	1.19	0.998	1.12	1.04	1.05	0.903	0.774	1.02	0.89	1.02
LC-2-ad	0.37	0.49	0.422	0.436	0.326	0.967	0.981	0.938	0.991	0.844	1.03	1.04	0.935	1.02	0.986	0.874	0.905	0.849	0.899	0.839
